# Reference: patent US6916845B2, “Method for prevention and treatment of male and female sexual dysfunction” (priority 1999, dated 2005)
# Where two headings read alike, the source gives them in different places. Marks after values point to notes of the source that are not given here.
# Assays:
# [1] = test system: cGMP formation in clitoris CC of female rabbits; assay: cGMP formation in CC of clitoris stimulated with SNP, radioimmunoassay; assay type: cell-based, rabbit
# [2] = test system: PDE4 isolated from human liver tissue; assay: Inhibition of cAMP specific PDE4, two-step radioisotope procedure; assay type: biochemical
# Description: (§1) PDE5 and PDE4 were isolated from human platelets and liver tissue using a Pharmacia FPLC system and Mono Q column. The cyclic nucleotide PDE5/PDE4 activities in FPLC fractions were determined using a modification of the two-step radioisotope procedure ([^3H]GMP/[^3H]AMP).
# adult male rat [3] = settings: in vivo
# Description: (§2) Twenty-four male, adult Wistar rats(weight:300-350 g) were used. After anesthetization, the left carotid artery was cannulated to monitor mean arterial pressure (MAP). Bipolar electrodes were positioned on the cavernous nerve (CN); the right cavernous body was cannulated with 26 G needle connected with Biopack MP100 to monitor ICP changes. After intracavemosal administration of 100 μl different concentration Icariin or Reserpine (10^−8M to 10^−4M) respectively, the CN was electrically stimulated (ES) 10 minutes later and ICP and MAP were monitored. In order to investigate the possible mechanism of the effect of icariin on ICP changes, 100 μl different concentration guanylate cyclase inhibitor ODQ (10^−8M-10^−4M) were intracavemosal administrated 10 minutes after Icariin (100 μl 10^−4M) administration into CC, and then the ICP was measured during erection, which was, followed the ES.
# [4] = target: T1, PDE5 isolated from human platelets (Homo sapiens, UniProt O76074); assay: Inhibition of cGMP specific PDE5, two-step radioisotope procedure; assay type: biochemical
# T1 construct: PDE5 and PDE4 were isolated from human platelets and liver tissue using a Pharmacia FPLC system and Mono Q column; from tissue; host or cells: human platelets
# Description: as §1
# adult male rat [5] = assay: Intracavernosal press (ICP) changes after intracavernosal administration and cavernous nerve electrical stimulation; assay type: in vivo; settings: CN stimulation 10 minutes later
# Description: as §2
# [6] = test system: castrated male Wistar rats; assay: Sexual activities (mating behavior) in castrated rat model after long-term oral administration; assay type: in vivo; settings: Group C and D, oral icariin for 3 months, n=10/12
# Description: (§3) Male Wistar rats(300-350 g)(n=24) randomly divide into 4 Groups; Group A for control; Group B for castrated and administration normal saline; Group C for castrated and oral administration Icariin […]; Group D for castrated and oral administration Icariin (5 mg/kg) for 3 months. After observe mating behavior, the animal was killed, the penis was excised rapidly, and cut into four parts. One of them used for immuohistochemical stain, the others was socked into RNAlater and stored in −70 condition. nNOS, eNOS, iNOS mRNA were semi-quantified by RT-PCR, β-actin as a controls. Specificity of RT-PCR products was confirmed by sequencing procedure, with-assay and between-assay variation was carried out respectively.
# [7] = test system: cAMP formation in rabbit corpus cavernosum; assay: cAMP formation in corpus cavernosum of penis stimulated with SNP, radioimmunoassay; assay type: cell-based
# [8] = test system: cGMP formation in rabbit corpus cavernosum; assay: cGMP formation in corpus cavernosum of penis stimulated with SNP, radioimmunoassay; assay type: cell-based; settings: in the presence of SNP
# nNOS mRNA = nNOS mRNA expression in penis of castrated rat model by RT-PCR; assay type: in vivo; settings: for Mean conc./area (nNOS) / Ratio (nNOS/β-actin): castrated, 3 months
# Description: as §3
# [9] = test system: rabbit's CC smooth muscle; assay: Relaxation of PHE pre-contracted corpus cavernosum smooth muscle strips in organ chamber; assay type: cell-based
# Description: Sixty adults male New Zealand white rabbits(Weight: 2.5-3.0 kg) were used. Rabbits were anesthesia with sodium pentobarbital(50 mg/kg), penis was removed and corpus cavernous tissue were carefully isolated and made into 2×2×6 mm muscle strips for isometric tension was measured in organ chamber in vitro study with polygraph(MP 100 WS:Biopac systems, USA). CC muscle strip was fixed in 10 ml organ chamber containing Tyrode solution and continuously supplied with mixed gas(95% O2 and 5% CO2) and keep temperature at 37° C. The initial resting tensions of muscle strips were set at 2 g and tissue was allowed to equilibrate for 1.5-3.0 hours. Sub-maximal contractile responses to phenylepherine(PHE 5×10^-6 M) were observed and optimal isometric tension was determined. To evaluate the relaxation effects of icariin (the other components magnoflorine, querectin, epimedin A, B and C as the controls) on CC muscle strips, investigated the relaxation effects of different dosage of icariin on muscle strips pre-contracted by PHE. And to investigate the pharmaceutical action mechanism, the effects of […] Nω-nitric-L-arginine(L-NNA), guanylate cyclase antagonist methylene blue and pyrogallol, soluble guanylate cyclase inhibitor 1H-[1,2,4]oxadiazolo[4,3,-a]quinoxalin-1-one (ODQ) on the relaxation effects of icariin on CC.
# iNOS mRNA = iNOS mRNA expression in penis of castrated rat model by RT-PCR; assay type: in vivo; settings: for Mean conc./area (iNOS) / Ratio (iNOS/β-actin): castrated, 3 months
# Description: as §3
# SD rat = assay type: in vivo; settings: for LDso: once subcutaneously, after 7 days
# Description: To investigate an acute toxicity of icariin, icariin was administered to SD rat. Total of 50 rats divide into 5 groups randomly and each group included 5 male and 5 female rats, respectively. The maximum dosage group for 3.0 g/kg, medium dosage group for 2.0 g/kg, sub-medium group for 1.0 g/kg and the minimum dosage group for 0.5 g/kg and comparative group for physiological saline solution only. Each of the drugs was once administered subcutaneously. After 7 days, it was shown that LDso of male was 1.88 g/kg and female was 1.96 g/kg.
smiles,measurement,setting,value
"COc1ccc(-c2oc3c(CC=C(C)C)c(O[C@@H]4O[C@H](CO)[C@@H](O)[C@H](O)[C@H]4O)cc(O)c3c(=O)c2O[C@@H]2O[C@@H](C)[C@H](O)[C@@H](O)[C@H]2O)cc1 [Icariin, icariin]",cGMP concentration in clitoris CC,[1],significantly increased
same,EC50,"[1]; Oryctolagus cuniculus, read-out: EC50 (cGMP formation, CC of clitoris)",3.16 µM
same,IC50,[2],73.5 µM
same,influence on MAP,adult male rat [3],no obviously influence
same,IC50,[4],0.432 µM
same,inhibiting potency on PDE5 weaker than that of Sildenafil,[4],108.10 times
same,specificity of inhibition PDE5 compared to PDE4,[4]; ratio of IC50 PDE4/PDE5,170.14 times
same,Increase ICP,adult male rat [5]; 100 μl 10^−4M intracavernosal,58.01 ± 5.78%
same,Increase ICP,adult male rat [5]; 100 μl 10^−5M intracavernosal,30.48 ± 3.06%
same,Increase ICP,adult male rat [5]; 100 μl 10^−6M intracavernosal,10.82 ± 1.06%
same,Increase ICP,adult male rat [5]; 100 μl 10^−7M intracavernosal,5.53 ± 0.69%
same,castrated rats restored sexual activities,[6],83.3%
same,influence on cAMP levels,[7],no significantly influenced
same,cGMP concentration changes,[8]; 10^−3M,10.43 ± 1.49 fmol/mg/min
same,cGMP concentration changes,[8]; 10^−4M,10.82 ± 1.58 fmol/mg/min
same,cGMP concentration changes,[8]; 10^−5M,8.92 ± 1.67 fmol/mg/min
same,cGMP concentration changes,[8]; 10^−6M,8.66 ± 2.03 fmol/mg/min
same,nNOS mRNA compared to control Group B,"nNOS mRNA; Group C and D, p<0.05",significantly increased
same,Mean conc./area (nNOS),"nNOS mRNA; Group C, oral Icariin (mg/kg)",44.60
same,Ratio (nNOS/β-actin),"nNOS mRNA; Group C, oral Icariin (mg/kg)",0.82*
same,Mean conc./area (nNOS),"nNOS mRNA; Group D, oral Icariin 5 mg/kg",36.40
same,Ratio (nNOS/β-actin),"nNOS mRNA; Group D, oral Icariin 5 mg/kg",1.08*
same,EC50,"[9]; Oryctolagus cuniculus, read-out: EC50 on the relaxation effects of CC smooth muscle",467 µM
same,relaxation effects on pre-contracted CC muscle strips,[9]; icariin 10^−4M,23.12 ± 1.36%
same,relaxation effects on pre-contracted CC muscle strips,[9]; icariin 10^−5M,4.42±1.08%
same,relaxation effects on pre-contracted CC muscle strips,[9]; icariin 10^−6M,1.23±0.82%
same,relaxation effects on pre-contracted CC muscle strips,[9]; icariin 10^−7M,0.08±0.04%
same,iNOS mRNA compared to control Group B,"iNOS mRNA; Group C and D, p<0.05",significantly increased
same,Mean conc./area (iNOS),"iNOS mRNA; Group C, oral Icariin (mg/kg)",17.28
same,Ratio (iNOS/β-actin),"iNOS mRNA; Group C, oral Icariin (mg/kg)",0.50*
same,Mean conc./area (iNOS),"iNOS mRNA; Group D, oral Icariin 5 mg/kg",23.20
same,Ratio (iNOS/β-actin),"iNOS mRNA; Group D, oral Icariin 5 mg/kg",0.74*
same,acute toxicity,"SD rat; SD rat, subcutaneous",low toxicity
same,LDso,SD rat; female SD rat,1960 mg/kg
same,LDso,SD rat; male SD rat,1880 mg/kg
